The text below walks through data of patent US8227512B2, “Pharmaceutical composition containing daurinol for the prevention and treatment of cancers” (Korea Institute of Science and Technology, priority 2007, dated 2012).

Structures are written as SMILES. Where “and” joins values, the source holds several entries; their conditions need not be identical. Equal values may be shown once. Read-outs that look alike come from different tables or passages of the source.

In assay [1] the test system is DLD-1. The experiment in a line: MTT cancer cell growth inhibition by daurinol. The format is cell-based. The conditions noted are these: Homo sapiens, read-out: IC50 (concentration for 50% of cell growth inhibition). The procedure:
(§1) Daurinol obtained by the method of Example 2 was treated to human colon cancer cell lines HCT116 (American type of cell culture, ATCC) and DLD-1 (American type of cell culture, ATCC) to investigate the cancer cell growth inhibitory effect. The cell lines were cultured in MEM supplemented with 10% fetal bovine serum and antibiotics (penicillin and streptomycin) in a 37° C., 5% CO2 incubator. Sub-culture was performed every 2-3 days.
(§2) HCT116 and DLD-1 were inoculated in a 96-well plate at the concentration of 5×10^3 cells/well, followed by culture for 24 hours. Daurinol dissolved in DMSO (Dimethyl Sulfoxide) was treated thereto at different concentrations of 0.1-200 μg/ml for 24 and 48 hours. MTT reagent (methylthiazol-2-yl-2.5 diphenyl tetrazolium bromide) was treated thereto. 1-3 hours later, OD450 was measured to investigate cell growth.

The test system of assay [2] is HCT116. Nature of the assay: MTT cancer cell growth inhibition by daurinol. The following applies: Homo sapiens, HCT-116, read-out: IC50 (concentration for 50% of cell growth inhibition). In kind it is cell-based. The procedure: as §1, §2
For assay [3], the system named is HCT116 cells. The experiment in a line: Apoptosis by annexin V-FITC / propidium iodide co-staining, flow cytometry. The following applies: HCT116, 5 μM daurinol, 24 and 48 hours (FIGS. 7 and 8). In kind it is cell-based, human. From the text:
The induction of apoptosis by daurinol obtained by the method of Example 2 was thoroughly examined by co-staining with annexin V—FITC (fluorescein isothiocyanate) and propidium iodide.
In normal cells, phosphatidylserine, one of the cell membrane forming phospholipids, is always heading toward inside of the cell. When early apoptosis is induced, this phosphatidylserine is exposed outside of the cell. Thus, the apoptotic cells can be detected by using green fluorescence labeled annexin V that is selectively bound to phosphatidylserine.
HCT116 cells were inoculated in 60×15 cm culture dishes at the concentration of 5×10^5 cells per dish, followed by culture for 24 hours. Daurinol dissolved in DMSO (Dimethyl Sulfoxide) was treated thereto at the concentrations of 5 μM for 24 and 48 hours. The cells were harvested and washed with DPBS (Dulbecco's Phosphate Buffered Saline). 1×10^6 cells were stained with annexin V-FITC (fluorescein isothiocyanate) and propidium iodide for 15 minutes, and then were analyzed by flow cytometry.
For orientation: Flow cytometry measures light scatter and fluorescence of single cells or particles in a stream.

In assay [4] the test system is DLD-1. Nature of the assay: Cell cycle analysis, propidium iodide staining, flow cytometry. In kind it is cell-based, human. The conditions noted are these: for Cell cycle ratio, sub G0/G1 ratio (index for apoptosis): 48 hours (control 0); for Cell cycle ratio, S phase ratio: 48 hours (control 29.6). The procedure:
(§3) Human colon cancer cell lines HCT116 and DLD-1 were inoculated in 60×15 cm culture dishes at the concentration of 5×10^5 cells per dish, followed by culture for 24 hours. Daurinol dissolved in DMSO (Dimethyl Sulfoxide) was treated thereto at the concentrations of 5-20 μM for 24, 48 and 72 hours, respectively. The cells were harvested and washed with DPBS (Dulbecco's Phosphate Buffered Saline), followed by fixation in 70% ethanol at −20° C. for more than one day. The cells were washed again with DPBS and stained with propidium iodide for 20 minutes, and then were analyzed by flow cytometry. The propidium iodide selectively stains intracellular DNA. So, the fluorescence by propidium iodide and cell numbers was used as variants to make a graph, showing the pattern of cell cycle. According to this graph, cell cycle blocking activity of daurinol and apoptosis induced by daurinol could be confirmed.

In assay [5] the test system is HCT116. Described as above. The conditions noted are these: for Cell cycle ratio, sub G0/G1 ratio (index for apoptosis): 48 hours (control 0.1); for Cell cycle ratio, S phase ratio: 48 hours (control 33.7). In kind it is cell-based, human. The procedure:
as §3

In assay [6] the test system is HCT116 cells. The experiment in a line: Morphological changes under DIC light microscope. The format is cell-based, human. The following applies: HCT116, 5 μM daurinol. As to the method:
Daurinol obtained by the method of Example 2 was treated to cancer cells and then morphological changes of the cancer cells were observed under DIC (differential interference contrast) light microscope.
HCT116 cells were inoculated in 60×15 cm culture dishes at the concentration of 5×10^5 cells per dish, followed by culture for 24 hours. 5 μM of daurinol dissolved in DMSO (Dimethyl Sulfoxide) was treated thereto, followed by culture for 12, 24, 48, 72 and 96 hours respectively. Morphological changes of the cells were observed under DIC light microscope.

As for `COc1cc2c(-c3ccc4c(c3)OCO4)c3c(cc2cc1O)COC3=O` [daurinol], the IC50 was 10.5 µg/mL and 30 µM with DLD-1 [1] (DLD-1, 24 hours treatment); 1.4 µg/mL and 4.08 µM in the assay with DLD-1 [1] (DLD-1, 48 hours treatment); 4.4 µg/mL and 12.4 µM in the assay on HCT116 [2] (HCT116, 24 hours treatment); 0.7 µg/mL and 2.07 µM in the assay on HCT116 [2] (HCT116, 48 hours treatment). Besides, the “Apoptosis (annexin V-FITC positive cells) versus control” value with HCT116 cells [3] is listed as “significantly induced”. In addition, the “Cell cycle ratio, sub G0/G1 ratio (index for apoptosis)” value with DLD-1 [4] (DLD-1, 5 μM daurinol) is reported as 0.3%; in the assay with DLD-1 [4] (DLD-1, 10 μM daurinol) it was 0.6%; in the assay with DLD-1 [4] (DLD-1, 20 μM daurinol), 1.4%; with HCT116 [5] (HCT116, 5 μM daurinol) it was 3.8%; in the assay with HCT116 [5] (HCT116, 10 μM daurinol), 4.6%; in the assay on HCT116 [5] (HCT116, 20 μM daurinol) it was 9.4%. Besides, the “Cell cycle ratio, S phase ratio” value with DLD-1 [4] (DLD-1, 5 μM daurinol) is reported as 68.6%; with DLD-1 [4] (DLD-1, 10 μM daurinol) it was 64.1%; in the assay on DLD-1 [4] (DLD-1, 20 μM daurinol) it was 68.0%; in the assay on HCT116 [5] (HCT116, 5 μM daurinol), 52.8%; in the assay on HCT116 [5] (HCT116, 10 μM daurinol), 61.1%; in the assay with HCT116 [5] (HCT116, 20 μM daurinol) it was 60.8%. Further, in the assay with HCT116 [5] (HCT116, 5 μM daurinol, 24, 48 and 72 hours (FIG. 5)), the “S phase of cell cycle versus untreated control” value is “significantly increased”. Further, the “sub G0/G1 ratio, the index for apoptosis” value with HCT116 [5] (HCT116, 5 μM daurinol, different treatment times (FIG. 6)) was “significantly increased”. In addition, the “Morphological changes of the cells” value in the assay on HCT116 cells [6] (after 24 hours (FIG. 9)) is reported as “the boundary of the cells became obvious”; in the assay with HCT116 cells [6] (after 48 hours (FIG. 9)), “started to detach from the bottom of culture dish”.
